Test results published in patent US20130029928A1 (priority 2010, published 2013).
Where two headings read alike, the source gives them in different places.

Assay: Phase I study CXR1002-001: plasma pharmacokinetics (LC-MS/MS)
Format: in vivo, human
Details: human, plasma, oral, person, plasma; for concentration at 24 h: 24 hr (Day 2); for concentration at 168 h: 168 hr (Day 8); for concentration at 336 h: 336 hr (Day 15); for concentration at 360 h: 360 hr (Day 16); for concentration at 504 h: 504 hr (Day 22); for concentration at 672 h: 672 hr (Day 29); for concentration at 696 h: 696 hr (Day 30); for concentration at 840 h: 840 hr (Day 36)
Excerpt: PK samples, PD (fasting) samples, blood glucose, and blood triglyceride samples, were taken over a 6-week period.
Dose limiting toxicity (DLT) will be based on the toxicity assessments over the first 3-week period of the repeat dosing schedule. PK samples (single blood sample) were taken on the following basis: • Every 6 weeks during the repeat dosing phase • If dosing is interrupted or stopped, samples will be taken at intervals according to patient convenience • PK sampling for safety evaluation may take place at any time, as clinically indicated
Plasma samples were collected after the single 50 mg dose at the following timepoints: Pre-dose, and then 0.25, 0.5, 0.75, 1, 1.5, 2, 3, 4, 6, 24, 48, and 72 hours after administration and then once weekly at weeks 2, 3, 4, 5, and 6 (days 8, 15, 22, 29, and 36). For patients treated with the weekly repeat dose, plasma samples were collected at the following timepoints: Pre-dose and then 2, 3, 4 and 24 hours after administration for a total of 6 weeks. Thereafter a single sample was collected every 6 weeks for monitoring of exposure during long term treatment. Plasma samples were processed at site and stored at −80° C. prior to batch shipment to the analytical laboratory.

[1] = 1000 mg, Patient 040, 1000 mg, read-out: Concentration
[2] = 1200 mg, Patient 033, 1200 mg, read-out: Concentration

Compound: O=C(O)C(F)(F)C(F)(F)C(F)(F)C(F)(F)C(F)(F)C(F)(F)C(F)(F)F [CXR1002]
- concentration at 4 h [1]: 190 µM
- concentration at 24 h [1]: 148 µM
- concentration at 168 h [1]: 120 µM
- concentration at 170 h [1]: 368 µM
- concentration at 171 h [1]: 343 µM
- concentration at 172 h (1000 mg, Patient 040, 1000 mg, 172 hr, read-out: Concentration): 326 µM
- concentration at 192 h (1000 mg, Patient 040, 1000 mg, 192 hr (Day 9), read-out: Concentration): 272 µM
- concentration at 336 h [1]: 305 µM
- concentration at 338 h [1]: 487 µM
- concentration at 339 h [1]: 427 µM
- concentration at 340 h [1]: 476 µM
- concentration at 360 h [1]: 485 µM
- concentration at 504 h [1]: 353 µM
- concentration at 506 h [1]: 502 µM
- concentration at 507 h (1000 mg, Patient 040, 1000 mg, 507 hr, read-out: Concentration): 554 µM
- concentration at 508 h (1000 mg, Patient 040, 1000 mg, 508 hr, read-out: Concentration): 515 µM
- concentration at 528 h (1000 mg, Patient 040, 1000 mg, 528 hr (Day 23), read-out: Concentration): 525 µM
- concentration at 672 h [1]: 490 µM
- concentration at 674 h [1]: 558 µM
- concentration at 675 h [1]: 533 µM
- concentration at 676 h [1]: 607 µM
- concentration at 696 h [1]: 697 µM
- concentration at 840 h [1]: 574 µM
- concentration at 842 h [1]: 626 µM
- concentration at 843 h (1000 mg, Patient 040, 1000 mg, 843 hr, read-out: Concentration): 748 µM
- concentration at 864 h (1000 mg, Patient 040, 1000 mg, 864 hr (Day 37), read-out: Concentration): 826 µM
- concentration at 0 h (1200 mg, Patient 033, 1200 mg, 0 hr (pre-dose)): 0 nM
- concentration at 2 h (1200 mg, Patient 033, 1200 mg, 2 hr, read-out: Concentration): 441 µM
- concentration at 3 h (1200 mg, Patient 033, 1200 mg, 3 hr, read-out: Concentration): 396 µM
- concentration at 4 h [2]: 374 µM
- concentration at 24 h [2]: 371 µM
- concentration at 168 h [2]: 317 µM
- concentration at 170 h [2]: 735 µM
- concentration at 171 h [2]: 657 µM
- concentration at 172 hr (1200 mg, Patient 033, 1200 mg, 172 hr, read-out: Concentration): 637 µM
- concentration at 192 hr (1200 mg, Patient 033, 1200 mg, 192 hr (Day 9), read-out: Concentration): 591 µM
- concentration at 336 h [2]: 637 µM
- concentration at 338 h [2]: 926 µM
- concentration at 339 h [2]: 841 µM
- concentration at 340 h [2]: 817 µM
- concentration at 360 h [2]: 915 µM
- concentration at 504 h [2]: 713 µM
- concentration at 506 h [2]: 1150 µM
- concentration at 507 hr (1200 mg, Patient 033, 1200 mg, 507 hr, read-out: Concentration): 1060 µM
- concentration at 508 hr (1200 mg, Patient 033, 1200 mg, 508 hr, read-out: Concentration): 1010 µM
- concentration at 672 h [2]: 1020 µM
- concentration at 674 h [2]: 1230 µM
- concentration at 675 h [2]: 1110 µM
- concentration at 676 h [2]: 1100 µM
- concentration at 696 h [2]: 1110 µM
- concentration at 840 h [2]: 1040 µM
- concentration at 842 h [2]: 1110 µM
- concentration at 843 hr (1200 mg, Patient 033, 1200 mg, 843 hr, read-out: Concentration): 1230 µM
- concentration at 844 hr (1200 mg, Patient 033, 1200 mg, 844 hr, read-out: Concentration): 1200 µM
- concentration at 864 hr (1200 mg, Patient 033, 1200 mg, 864 hr (Day 37), read-out: Concentration): 1320 µM
- concentration at 2 hr (1200 mg, Patient 034, 1200 mg, 2 hr, read-out: Concentration): 440 µM
- concentration at 3 hr (1200 mg, Patient 034, 1200 mg, 3 hr, read-out: Concentration): 401 µM
